Assay results published in ChEMBL document CHEMBL4765228, “Indole-like Trk receptor antagonists” (Eur J Med Chem, 2016).
Active and inactive are the calls of the source. The calls are words filed in the database; no cut-off is given here.

Columns and labels:
[1] = biological target: T1, Eukaryotic elongation factor 2 kinase (Homo sapiens) (UniProt O00418); assay: Inhibition of human EEF2K assessed as residual activity at 1 uM relative to control
T1 sequence (whole entry): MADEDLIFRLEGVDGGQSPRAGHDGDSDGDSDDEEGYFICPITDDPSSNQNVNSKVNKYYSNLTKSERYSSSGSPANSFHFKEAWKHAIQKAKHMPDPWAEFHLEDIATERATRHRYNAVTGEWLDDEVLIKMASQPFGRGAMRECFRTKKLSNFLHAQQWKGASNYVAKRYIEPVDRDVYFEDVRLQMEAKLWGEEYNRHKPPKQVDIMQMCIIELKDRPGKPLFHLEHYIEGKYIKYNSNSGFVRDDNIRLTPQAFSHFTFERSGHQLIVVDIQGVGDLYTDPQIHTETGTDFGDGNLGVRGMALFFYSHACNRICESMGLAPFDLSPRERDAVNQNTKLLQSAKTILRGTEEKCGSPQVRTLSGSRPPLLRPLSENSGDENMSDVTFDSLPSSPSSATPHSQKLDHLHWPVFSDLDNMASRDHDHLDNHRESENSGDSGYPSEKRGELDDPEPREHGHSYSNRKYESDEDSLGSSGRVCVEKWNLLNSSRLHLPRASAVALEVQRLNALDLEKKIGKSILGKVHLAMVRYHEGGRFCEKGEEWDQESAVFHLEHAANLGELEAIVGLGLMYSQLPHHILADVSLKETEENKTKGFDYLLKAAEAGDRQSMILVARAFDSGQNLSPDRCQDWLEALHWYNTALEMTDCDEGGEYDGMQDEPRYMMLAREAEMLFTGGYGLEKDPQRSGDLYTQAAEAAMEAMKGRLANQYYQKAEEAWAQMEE

[2] = biological target: Mitogen-activated protein kinase 8 (Homo sapiens) (UniProt P45983); assay: Inhibition of human JNK1 assessed as residual activity at 0.1 uM relative to control
Sequence of Mitogen-activated protein kinase 8 (Homo sapiens) (P45983 whole entry): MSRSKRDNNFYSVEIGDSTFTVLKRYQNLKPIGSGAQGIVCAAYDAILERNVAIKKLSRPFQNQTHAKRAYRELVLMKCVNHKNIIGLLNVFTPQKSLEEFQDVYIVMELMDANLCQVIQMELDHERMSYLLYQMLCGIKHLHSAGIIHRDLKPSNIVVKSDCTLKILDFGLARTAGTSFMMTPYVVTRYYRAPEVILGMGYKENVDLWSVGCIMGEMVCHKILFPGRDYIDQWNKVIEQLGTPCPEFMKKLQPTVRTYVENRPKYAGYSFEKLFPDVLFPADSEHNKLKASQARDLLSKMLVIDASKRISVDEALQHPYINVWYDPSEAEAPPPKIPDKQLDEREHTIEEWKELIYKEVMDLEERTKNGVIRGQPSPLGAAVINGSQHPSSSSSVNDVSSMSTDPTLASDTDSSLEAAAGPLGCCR

[3] = biological target: Serine/threonine-protein kinase pim-1 (Homo sapiens) (UniProt P11309); assay: Inhibition of human PIM1 assessed as residual activity at 0.1 uM relative to control
Sequence of Serine/threonine-protein kinase pim-1 (Homo sapiens) (P11309 whole entry, looked up): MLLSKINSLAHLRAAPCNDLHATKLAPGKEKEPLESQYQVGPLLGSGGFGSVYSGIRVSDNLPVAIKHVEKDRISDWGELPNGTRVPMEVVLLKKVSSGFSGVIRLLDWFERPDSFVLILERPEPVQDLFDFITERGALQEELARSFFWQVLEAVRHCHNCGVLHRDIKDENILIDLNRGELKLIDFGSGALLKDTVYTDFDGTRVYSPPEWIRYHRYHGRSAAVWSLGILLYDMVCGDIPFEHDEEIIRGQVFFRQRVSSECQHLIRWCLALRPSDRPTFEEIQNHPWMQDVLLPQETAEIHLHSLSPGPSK

[4] = biological target: T2, Dual specificity protein kinase TTK (Homo sapiens) (UniProt P33981); assay: Inhibition of human TTK assessed as residual activity at 0.1 uM relative to control
T2 sequence (whole entry): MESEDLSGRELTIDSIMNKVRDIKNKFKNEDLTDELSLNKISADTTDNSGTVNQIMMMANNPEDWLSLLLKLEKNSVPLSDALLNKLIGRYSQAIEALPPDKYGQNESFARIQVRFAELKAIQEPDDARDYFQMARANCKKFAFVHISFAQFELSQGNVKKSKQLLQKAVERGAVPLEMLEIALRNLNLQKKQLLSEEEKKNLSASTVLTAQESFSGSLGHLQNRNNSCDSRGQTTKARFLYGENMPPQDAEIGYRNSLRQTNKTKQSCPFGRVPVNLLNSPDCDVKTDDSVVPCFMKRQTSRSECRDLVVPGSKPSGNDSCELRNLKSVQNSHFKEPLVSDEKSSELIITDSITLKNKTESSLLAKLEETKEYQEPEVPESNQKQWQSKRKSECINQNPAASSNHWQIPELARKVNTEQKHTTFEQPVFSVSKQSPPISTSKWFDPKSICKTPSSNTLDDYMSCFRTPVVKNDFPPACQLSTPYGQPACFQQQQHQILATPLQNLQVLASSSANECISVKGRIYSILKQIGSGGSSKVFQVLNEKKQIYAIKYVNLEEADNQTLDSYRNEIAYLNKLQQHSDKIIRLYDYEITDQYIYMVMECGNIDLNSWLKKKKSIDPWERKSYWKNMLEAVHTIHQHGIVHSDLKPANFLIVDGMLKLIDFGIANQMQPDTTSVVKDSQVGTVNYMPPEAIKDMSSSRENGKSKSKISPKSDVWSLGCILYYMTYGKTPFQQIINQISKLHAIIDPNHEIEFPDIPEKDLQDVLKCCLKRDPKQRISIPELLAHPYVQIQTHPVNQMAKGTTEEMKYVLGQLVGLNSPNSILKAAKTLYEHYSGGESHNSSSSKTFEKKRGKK

[5] = biological target: High affinity nerve growth factor receptor (Homo sapiens, UniProt P04629); assay: Inhibition of GAL4 fused TrkA (unknown origin) expressed in PC12 cells transfected with pFA2-Elk plasmid and pFR-luciferase plasmid measured for 18 hrs by luciferase reporter gene assay; type: cell-based, Rattus norvegicus, PC-12
Sequence of High affinity nerve growth factor receptor (P04629 whole entry, the tested form may be a part): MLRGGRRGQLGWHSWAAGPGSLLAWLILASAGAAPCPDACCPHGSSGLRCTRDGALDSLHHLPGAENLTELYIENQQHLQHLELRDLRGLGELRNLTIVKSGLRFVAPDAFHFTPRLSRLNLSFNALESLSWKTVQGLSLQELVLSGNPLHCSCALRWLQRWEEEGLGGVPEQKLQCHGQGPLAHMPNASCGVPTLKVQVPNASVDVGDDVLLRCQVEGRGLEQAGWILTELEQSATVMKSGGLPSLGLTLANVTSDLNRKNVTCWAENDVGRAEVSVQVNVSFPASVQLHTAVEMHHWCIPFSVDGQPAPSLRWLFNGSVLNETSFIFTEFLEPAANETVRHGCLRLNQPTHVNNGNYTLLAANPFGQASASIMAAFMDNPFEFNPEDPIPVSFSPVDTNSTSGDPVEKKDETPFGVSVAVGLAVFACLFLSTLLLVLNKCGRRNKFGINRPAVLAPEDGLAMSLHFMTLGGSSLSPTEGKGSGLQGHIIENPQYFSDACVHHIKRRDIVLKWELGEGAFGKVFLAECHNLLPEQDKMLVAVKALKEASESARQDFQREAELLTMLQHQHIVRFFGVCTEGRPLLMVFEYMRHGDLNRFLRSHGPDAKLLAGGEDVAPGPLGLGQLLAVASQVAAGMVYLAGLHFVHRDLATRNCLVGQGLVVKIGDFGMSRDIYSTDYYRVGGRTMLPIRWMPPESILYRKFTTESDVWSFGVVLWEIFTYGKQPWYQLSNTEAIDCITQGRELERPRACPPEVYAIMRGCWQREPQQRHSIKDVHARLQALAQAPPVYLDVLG

[6] = biological target: Tyrosine-protein kinase SYK (Homo sapiens) (UniProt P43405); assay: Inhibition of human SYK (1 to 635 residues) assessed as residual activity at 0.1 uM relative to control
[7] = biological target: Aurora kinase B (Homo sapiens) (UniProt Q96GD4); assay: Inhibition of human Aurora-B assessed as residual activity at 1 uM relative to control
[8] = biological target: Tyrosine-protein kinase SYK (Homo sapiens) (UniProt P43405); assay: Inhibition of human SYK (1 to 635 residues) assessed as residual activity at 1 uM relative to control
[9] = biological target: Serine/threonine-protein kinase Nek6 (Homo sapiens) (UniProt Q9HC98); assay: Inhibition of human NEK6 assessed as residual activity at 1 uM relative to control
[10] = biological target: Mitogen-activated protein kinase kinase kinase 11 (Homo sapiens) (UniProt Q16584); assay: Inhibition of human MAP3K11 assessed as residual activity at 0.1 uM relative to control
Sequence of Mitogen-activated protein kinase kinase kinase 11 (Homo sapiens) (Q16584 whole entry, looked up): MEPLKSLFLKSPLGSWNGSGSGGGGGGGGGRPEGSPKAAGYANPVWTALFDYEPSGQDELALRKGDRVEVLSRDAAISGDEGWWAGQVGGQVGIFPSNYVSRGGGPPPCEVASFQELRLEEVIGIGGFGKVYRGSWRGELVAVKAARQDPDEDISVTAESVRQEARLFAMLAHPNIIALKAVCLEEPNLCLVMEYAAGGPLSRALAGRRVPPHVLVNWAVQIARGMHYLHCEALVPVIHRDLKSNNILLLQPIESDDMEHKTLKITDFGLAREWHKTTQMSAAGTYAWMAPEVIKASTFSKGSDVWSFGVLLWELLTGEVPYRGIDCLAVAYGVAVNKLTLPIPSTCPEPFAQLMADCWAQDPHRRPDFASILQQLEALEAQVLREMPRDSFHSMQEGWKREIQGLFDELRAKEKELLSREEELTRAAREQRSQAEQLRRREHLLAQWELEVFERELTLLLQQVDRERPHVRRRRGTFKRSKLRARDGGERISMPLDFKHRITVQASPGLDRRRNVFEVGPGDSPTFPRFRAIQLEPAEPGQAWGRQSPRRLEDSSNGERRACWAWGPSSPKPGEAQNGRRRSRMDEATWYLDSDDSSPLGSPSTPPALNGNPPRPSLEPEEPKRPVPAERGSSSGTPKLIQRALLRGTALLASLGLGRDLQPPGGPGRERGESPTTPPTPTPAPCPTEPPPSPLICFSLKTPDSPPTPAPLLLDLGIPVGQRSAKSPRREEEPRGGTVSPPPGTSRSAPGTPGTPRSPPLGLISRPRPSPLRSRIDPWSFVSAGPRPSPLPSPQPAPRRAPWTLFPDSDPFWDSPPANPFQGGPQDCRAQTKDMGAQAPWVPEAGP

[11] = biological target: NT-3 growth factor receptor (Homo sapiens, UniProt Q16288); assay: Inhibition of TrkC (unknown origin)
Sequence of NT-3 growth factor receptor (Q16288 whole entry): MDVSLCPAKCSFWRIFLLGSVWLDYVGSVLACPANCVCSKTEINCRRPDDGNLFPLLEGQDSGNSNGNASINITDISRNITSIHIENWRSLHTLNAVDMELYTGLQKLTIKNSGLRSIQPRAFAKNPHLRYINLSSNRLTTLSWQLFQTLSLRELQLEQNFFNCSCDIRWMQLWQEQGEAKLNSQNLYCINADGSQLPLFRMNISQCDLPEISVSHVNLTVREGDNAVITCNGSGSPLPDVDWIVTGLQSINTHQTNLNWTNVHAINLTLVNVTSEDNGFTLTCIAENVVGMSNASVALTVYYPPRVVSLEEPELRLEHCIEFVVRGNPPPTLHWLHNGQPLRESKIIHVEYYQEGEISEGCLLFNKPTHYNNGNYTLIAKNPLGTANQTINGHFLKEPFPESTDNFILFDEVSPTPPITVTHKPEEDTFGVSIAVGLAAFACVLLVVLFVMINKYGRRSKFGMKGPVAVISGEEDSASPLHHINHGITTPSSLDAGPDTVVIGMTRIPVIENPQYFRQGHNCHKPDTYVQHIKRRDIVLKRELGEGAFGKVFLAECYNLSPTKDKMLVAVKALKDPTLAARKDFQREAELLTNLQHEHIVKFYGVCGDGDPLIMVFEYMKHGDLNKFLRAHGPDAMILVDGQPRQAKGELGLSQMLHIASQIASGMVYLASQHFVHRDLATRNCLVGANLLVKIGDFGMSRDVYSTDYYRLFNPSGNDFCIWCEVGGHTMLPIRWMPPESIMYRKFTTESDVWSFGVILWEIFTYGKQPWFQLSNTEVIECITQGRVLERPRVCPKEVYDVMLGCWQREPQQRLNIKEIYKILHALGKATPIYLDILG

[12] = biological target: T2, Dual specificity protein kinase TTK (Homo sapiens); assay: Inhibition of human TTK assessed as residual activity at 1 uM relative to control
[13] = biological target: BDNF/NT-3 growth factors receptor (Mus musculus) (UniProt P15209); assay: Inhibition of TrkB phosphorylation in mouse MG87 cells transfected with pFA2-Elk plasmid and pFR-luciferase plasmid at 1 uM after 5 mins in presence of BDNF by Western blot analysis; type: cell-based
Sequence of BDNF/NT-3 growth factors receptor (Mus musculus) (P15209 whole entry): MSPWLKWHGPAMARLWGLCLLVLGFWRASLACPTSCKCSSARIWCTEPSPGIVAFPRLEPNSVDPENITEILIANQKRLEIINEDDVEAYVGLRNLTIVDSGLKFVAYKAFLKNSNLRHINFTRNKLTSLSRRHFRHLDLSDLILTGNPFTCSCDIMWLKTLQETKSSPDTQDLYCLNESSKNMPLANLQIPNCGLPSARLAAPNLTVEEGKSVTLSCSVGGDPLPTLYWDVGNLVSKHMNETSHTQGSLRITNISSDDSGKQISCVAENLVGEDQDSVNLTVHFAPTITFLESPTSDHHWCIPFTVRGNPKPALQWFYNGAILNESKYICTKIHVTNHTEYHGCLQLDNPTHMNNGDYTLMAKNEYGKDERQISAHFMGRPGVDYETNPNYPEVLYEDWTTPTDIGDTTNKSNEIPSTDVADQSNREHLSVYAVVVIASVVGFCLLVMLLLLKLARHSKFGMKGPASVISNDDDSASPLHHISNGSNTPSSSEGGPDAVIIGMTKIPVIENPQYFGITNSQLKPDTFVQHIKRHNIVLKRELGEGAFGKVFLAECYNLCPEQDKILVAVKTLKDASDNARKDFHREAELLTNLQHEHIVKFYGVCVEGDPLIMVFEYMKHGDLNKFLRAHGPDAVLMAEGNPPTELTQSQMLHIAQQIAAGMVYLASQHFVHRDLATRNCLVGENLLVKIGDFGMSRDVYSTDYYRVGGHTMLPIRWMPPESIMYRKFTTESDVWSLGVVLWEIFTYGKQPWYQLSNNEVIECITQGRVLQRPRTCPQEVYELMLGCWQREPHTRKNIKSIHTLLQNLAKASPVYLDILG

[14] = biological target: BDNF/NT-3 growth factors receptor (Mus musculus) (UniProt P15209); assay: Inhibition of TrkB in mouse MG87 cells transfected with pFA2-Elk plasmid and pFR-luciferase plasmid assessed as reduction in ERK1/ERK2 phosphorylation at 0.01 to 1 uM after 5 mins in presence of BDNF by Western blot analysis; type: cell-based; conditions: dose 0.01-1 µM
MG87 = assay: Cytotoxicity against mouse MG87 cells transfected with pFA2-Elk plasmid and pFR-luciferase plasmid assessed as cellular ATP content at 0.01 to 1 uM after 24 hrs by CellTiter-Glo luminescent analysis; type: functional, cell-based; conditions: dose 0.01-1 µM
[15] = biological target: High affinity nerve growth factor receptor (Rattus norvegicus) (UniProt P35739); assay: Inhibition of TrkA in rat PC-12 cells assessed as reduction in Akt phosphorylation at 0.01 to 1 uM after 5 mins in presence of NGF by Western blot analysis; type: cell-based; conditions: dose 0.01-1 µM
Sequence of High affinity nerve growth factor receptor (Rattus norvegicus) (P35739 whole entry): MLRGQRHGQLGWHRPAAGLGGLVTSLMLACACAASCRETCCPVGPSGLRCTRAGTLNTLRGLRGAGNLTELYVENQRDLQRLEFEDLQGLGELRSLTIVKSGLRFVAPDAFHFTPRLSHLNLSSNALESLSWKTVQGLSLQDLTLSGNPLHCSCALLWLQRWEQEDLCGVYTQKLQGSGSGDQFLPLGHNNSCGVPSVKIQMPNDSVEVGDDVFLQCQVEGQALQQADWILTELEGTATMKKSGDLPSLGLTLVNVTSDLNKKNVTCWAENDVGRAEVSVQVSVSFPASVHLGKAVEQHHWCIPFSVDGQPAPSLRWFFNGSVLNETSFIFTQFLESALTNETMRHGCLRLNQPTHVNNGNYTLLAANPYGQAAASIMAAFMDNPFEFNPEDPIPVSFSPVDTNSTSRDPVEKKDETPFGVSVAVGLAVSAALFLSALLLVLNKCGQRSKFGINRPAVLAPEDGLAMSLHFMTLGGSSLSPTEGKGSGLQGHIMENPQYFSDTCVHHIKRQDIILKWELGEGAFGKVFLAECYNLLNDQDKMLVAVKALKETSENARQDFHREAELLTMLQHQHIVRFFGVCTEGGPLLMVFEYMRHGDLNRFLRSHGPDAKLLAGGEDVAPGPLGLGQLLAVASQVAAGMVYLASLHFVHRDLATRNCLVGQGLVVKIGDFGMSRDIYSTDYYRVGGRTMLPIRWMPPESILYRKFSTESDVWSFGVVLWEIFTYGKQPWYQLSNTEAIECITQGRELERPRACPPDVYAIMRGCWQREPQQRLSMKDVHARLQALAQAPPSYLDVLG

[16] = biological target: High affinity nerve growth factor receptor (Rattus norvegicus) (UniProt P35739); assay: Inhibition of TrkA in rat PC12 cells assessed as reduction in ERK1/ERK2 phosphorylation at 0.01 to 1 uM after 5 mins in presence of NGF by Western blot analysis; type: cell-based; conditions: PC-12, dose 0.01-1 µM
[17] = biological target: High affinity nerve growth factor receptor (Rattus norvegicus) (UniProt P35739); assay: Inhibition of TrkA phosphorylation in rat PC12 cells at 1 uM after 5 mins in presence of NGF by Western blot analysis; type: cell-based; conditions: PC-12

COc1ccc2[nH]cc(/C=C3\C(=O)Nc4ccc(S(N)(=O)=O)cc43)c2c1
Activity [1]: 112% | Activity [2]: 103% | Activity [3]: 103% | Activity [4]: 101% | IC50 [5]: 103 nM | Activity [6]: 86% | Activity [7]: 48% | Activity [8]: 35% | Activity [9]: 108% | Activity [10]: 66% | IC50 [11]: 8.82 nM | Activity [12]: 80%

COc1ccc2c(c1)c(/C=C1\C(=O)Nc3ccc(S(=O)(=O)N(C)C)cc31)cn2C
Activity [1]: 86% | inhibition [13]: Active | inhibition [14]: Active | Activity [2]: 103% | Activity [3]: 104% | Activity [4]: 102% | Activity (MG87): inactive | inhibition [15]: Active | IC50 [5]: 46 nM | Activity [6]: 102% | Activity [7]: 71% | inhibition [16]: Active | Activity [8]: 91% | Activity [9]: 100% | Activity [10]: 84% | inhibition [17]: Active | IC50 [11]: 11.7 nM | Activity [12]: 106%

COc1ccc2c(c1)c(/C=C1\C(=O)Nc3ccc(S(N)(=O)=O)cc31)cn2C
Activity [1]: 102% | inhibition [13]: Active | inhibition [14]: Active | Activity [2]: 110% | Activity [3]: 96% | Activity [4]: 109% | Activity (MG87): inactive | inhibition [15]: Active | Activity [7]: 50% | inhibition [16]: Active | Activity [9]: 98% | Activity [10]: 34% | inhibition [17]: Active | Activity [12]: 96%

Cn1cc(/C=C2\C(=O)Nc3ccc(S(N)(=O)=O)cc32)c2ccccc21
Activity [1]: 103% | Activity [2]: 121% | Activity [3]: 105% | Activity [4]: 104% | IC50 [5]: 36.7 nM | Activity [6]: 69% | Activity [7]: 42% | Activity [8]: 47% | Activity [9]: 109% | Activity [10]: 36% | IC50 [11]: 6.86 nM | Activity [12]: 85%

CNS(=O)(=O)c1ccc2c(c1)/C(=C/c1cn(C)c3ccc(OC)cc13)C(=O)N2
Activity [1]: 92% | inhibition [13]: Active | inhibition [14]: Active | Activity [2]: 103% | Activity [3]: 94% | Activity [4]: 99% | Activity (MG87): inactive | inhibition [15]: Active | Activity [7]: 76% | inhibition [16]: Active | Activity [9]: 97% | Activity [10]: 76% | inhibition [17]: Active | Activity [12]: 86%

CN(C)S(=O)(=O)c1ccc2c(c1)/C(=C/c1cn(C)c3ccc(O)cc13)C(=O)N2
Activity [1]: 106% | Activity [2]: 105% | Activity [3]: 102% | Activity [4]: 104% | IC50 [5]: 92.8 nM | Activity [6]: 107% | Activity [7]: 11% | Activity [8]: 91% | Activity [9]: 103% | Activity [10]: 80% | IC50 [11]: 9.72 nM | Activity [12]: 96%
